# Reference: paper PMC6906348 (Therapeutic Advances in Medical Oncology, 2019)
# Tested on: patients with advanced HCC
# Experiment: Safety: adverse events
# Format: in vivo, human
# Conditions: for Abdominal pain (AE regardless of study drug relationship) / Acute kidney injury (AE regardless of study drug relationship) / Anemia (AE regardless of study drug relationship) / Ascites (AE regardless of study drug relationship) / Blood bilirubin increased (AE regardless of study drug relationship) / Blood creatinine increased (AE regardless of study drug relationship) / Constipation (AE regardless of study drug relationship) / Decreased appetite (AE regardless of study drug relationship) / Diarrhea (AE regardless of study drug relationship) / Fatigue (AE regardless of study drug relationship) / Hyperbilirubinemia (AE regardless of study drug relationship) / Hypoalbuminemia (AE regardless of study drug relationship) / Insomnia (AE regardless of study drug relationship) / Leukopenia (AE regardless of study drug relationship) / Nausea (AE regardless of study drug relationship) / Number of patients with at least one event (AE regardless of study drug relationship) / Peripheral edema (AE regardless of study drug relationship) / Platelet count decreased (AE regardless of study drug relationship) / Pyrexia (AE regardless of study drug relationship) / Vomiting (AE regardless of study drug relationship) / Weight decreased (AE regardless of study drug relationship) / ALT increased (AE regardless of study drug relationship) / AST increased (AE regardless of study drug relationship): patients n (%)
# [1] = 600 mg capsule BID n = 27, All grades
# [2] = 600 mg capsule BID n = 27, Grades 3/4
# [3] = All patients n = 38, All grades
# [4] = All patients n = 38, Grades 3/4
# [5] = all patients (n = 38), all grades
smiles,measurement,setting,value
CNC(=O)c1ccc(-c2cnc3ncc(Cc4ccc5ncccc5c4)n3n2)cc1F [capmatinib],Abdominal pain (AE regardless of study drug relationship),[1],3 (11)
same,Acute kidney injury (AE regardless of study drug relationship),[1],2 (7)
same,Anemia (AE regardless of study drug relationship),[1],5 (19)
same,Ascites (AE regardless of study drug relationship),[1],4 (15)
same,Blood bilirubin increased (AE regardless of study drug relationship),[1],7 (26)
same,Blood creatinine increased (AE regardless of study drug relationship),[1],7 (26)
same,Constipation (AE regardless of study drug relationship),[1],6 (22)
same,Decreased appetite (AE regardless of study drug relationship),[1],9 (33)
same,Diarrhea (AE regardless of study drug relationship),[1],8 (30)
same,Fatigue (AE regardless of study drug relationship),[1],6 (22)
same,Hyperbilirubinemia (AE regardless of study drug relationship),[1],4 (15)
same,Hypoalbuminemia (AE regardless of study drug relationship),[1],6 (22)
same,Insomnia (AE regardless of study drug relationship),[1],5 (19)
same,Leukopenia (AE regardless of study drug relationship),[1],4 (15)
same,Nausea (AE regardless of study drug relationship),[1],9 (33)
same,Number of patients with at least one event (AE regardless of study drug relationship),[1],27 (100)
same,Peripheral edema (AE regardless of study drug relationship),[1],4 (15)
same,Platelet count decreased (AE regardless of study drug relationship),[1],4 (15)
same,Pyrexia (AE regardless of study drug relationship),[1],5 (19)
same,Vomiting (AE regardless of study drug relationship),[1],9 (33)
same,Weight decreased (AE regardless of study drug relationship),[1],2 (7)
same,ALT increased (AE regardless of study drug relationship),[2],1 (4)
same,AST increased (AE regardless of study drug relationship),[2],8 (30)
same,Abdominal pain (AE regardless of study drug relationship),[2],1 (4)
same,Acute kidney injury (AE regardless of study drug relationship),[2],1 (4)
same,Anemia (AE regardless of study drug relationship),[2],1 (4)
same,Ascites (AE regardless of study drug relationship),[2],1 (4)
same,Blood bilirubin increased (AE regardless of study drug relationship),[2],5 (19)
same,Blood creatinine increased (AE regardless of study drug relationship),[2],1 (4)
same,Constipation (AE regardless of study drug relationship),[2],0
same,Decreased appetite (AE regardless of study drug relationship),[2],1 (4)
same,Diarrhea (AE regardless of study drug relationship),[2],0
same,Fatigue (AE regardless of study drug relationship),[2],0
same,Hyperbilirubinemia (AE regardless of study drug relationship),[2],3 (11)
same,Hypoalbuminemia (AE regardless of study drug relationship),[2],0
same,Insomnia (AE regardless of study drug relationship),[2],0
same,Leukopenia (AE regardless of study drug relationship),[2],0
same,Nausea (AE regardless of study drug relationship),[2],1 (4)
same,Number of patients with at least one event (AE regardless of study drug relationship),[2],19 (70)
same,Peripheral edema (AE regardless of study drug relationship),[2],0
same,Platelet count decreased (AE regardless of study drug relationship),[2],0
same,Pyrexia (AE regardless of study drug relationship),[2],0
same,Vomiting (AE regardless of study drug relationship),[2],1 (4)
same,Weight decreased (AE regardless of study drug relationship),[2],0
same,patients with at least 1 dose reduction due to AEs,7/38 patients,18%
same,ALT increased (AE regardless of study drug relationship),[3],7 (18)
same,AST increased (AE regardless of study drug relationship),[3],12 (32)
same,Abdominal pain (AE regardless of study drug relationship),[3],5 (13)
same,Acute kidney injury (AE regardless of study drug relationship),[3],4 (11)
same,Anemia (AE regardless of study drug relationship),[3],8 (21)
same,Ascites (AE regardless of study drug relationship),[3],5 (13)
same,Blood bilirubin increased (AE regardless of study drug relationship),[3],9 (24)
same,Blood creatinine increased (AE regardless of study drug relationship),[3],10 (26)
same,Constipation (AE regardless of study drug relationship),[3],9 (24)
same,Decreased appetite (AE regardless of study drug relationship),[3],12 (32)
same,Diarrhea (AE regardless of study drug relationship),[3],13 (34)
same,Fatigue (AE regardless of study drug relationship),[3],10 (26)
same,Hyperbilirubinemia (AE regardless of study drug relationship),[3],4 (11)
same,Hypoalbuminemia (AE regardless of study drug relationship),[3],8 (21)
same,Insomnia (AE regardless of study drug relationship),[3],7 (18)
same,Leukopenia (AE regardless of study drug relationship),[3],4 (11)
same,Nausea (AE regardless of study drug relationship),[3],16 (42)
same,Number of patients with at least one event (AE regardless of study drug relationship),[3],38 (100)
same,Peripheral edema (AE regardless of study drug relationship),[3],6 (16)
same,Platelet count decreased (AE regardless of study drug relationship),[3],4 (11)
same,Pyrexia (AE regardless of study drug relationship),[3],6 (16)
same,Vomiting (AE regardless of study drug relationship),[3],14 (37)
same,Weight decreased (AE regardless of study drug relationship),[3],4 (11)
same,ALT increased (AE regardless of study drug relationship),[4],2 (5)
same,AST increased (AE regardless of study drug relationship),[4],9 (24)
same,Abdominal pain (AE regardless of study drug relationship),[4],1 (3)
same,Acute kidney injury (AE regardless of study drug relationship),[4],2 (5)
same,Anemia (AE regardless of study drug relationship),[4],3 (8)
same,Ascites (AE regardless of study drug relationship),[4],1 (3)
same,Blood bilirubin increased (AE regardless of study drug relationship),[4],6 (16)
same,Blood creatinine increased (AE regardless of study drug relationship),[4],1 (3)
same,Constipation (AE regardless of study drug relationship),[4],0
same,Decreased appetite (AE regardless of study drug relationship),[4],1 (3)
same,Diarrhea (AE regardless of study drug relationship),[4],1 (3)
same,Fatigue (AE regardless of study drug relationship),[4],0
same,Hyperbilirubinemia (AE regardless of study drug relationship),[4],3 (8)
same,Hypoalbuminemia (AE regardless of study drug relationship),[4],1 (3)
same,Insomnia (AE regardless of study drug relationship),[4],0
same,Leukopenia (AE regardless of study drug relationship),[4],0
same,Nausea (AE regardless of study drug relationship),[4],1 (3)
same,Number of patients with at least one event (AE regardless of study drug relationship),[4],25 (66)
same,Peripheral edema (AE regardless of study drug relationship),[4],0
same,Platelet count decreased (AE regardless of study drug relationship),[4],0
same,Pyrexia (AE regardless of study drug relationship),[4],0
same,Vomiting (AE regardless of study drug relationship),[4],2 (5)
same,Weight decreased (AE regardless of study drug relationship),[4],0
same,"diarrhea, AE regardless of causality",[5],34%
same,"nausea, AE regardless of causality",[5],42%
same,"vomiting, AE regardless of causality",[5],37%
same,patients with AEs that led to discontinuation of capmatinib,"all patients (n = 38), nine patients",24%
same,tolerability,"single agent, 600 mg BID capsules and 400 mg BID tablets",tolerable with a manageable safety profile
